# ChEMBL document CHEMBL4118131, “Synthesis of 1,2,4-triazole-linked urea/thiourea conjugates as cytotoxic and apoptosis inducing agents” (Bioorg Med Chem Lett, 2018)
# Calls of active or inactive are those of the source. No cut-off for these calls is given here.
# Assays:
# MCF7 [1] = assay: Cytotoxicity in human MCF7 cells assessed as reduction in cell viability incubated for 48 hrs by MTT assay; assay type: functional, cell-based; details: MCF7, 48 h
# A549 = assay: Cytotoxicity in human A549 cells assessed as reduction in cell viability incubated for 48 hrs by MTT assay; assay type: functional, cell-based; details: A549, 48 h
# MDA-MB-231 = assay: Cytotoxicity in human MDA-MB-231 cells assessed as reduction in cell viability incubated for 48 hrs by MTT assay; assay type: functional, cell-based; details: MDA-MB-231, 48 h
# DU-145 = assay: Cytotoxicity in human DU145 cells assessed as reduction in cell viability incubated for 48 hrs by MTT assay; assay type: functional, cell-based; details: DU-145, 48 h
# B16-F10 = assay: Cytotoxicity in mouse B16/F10 cells assessed as reduction in cell viability incubated for 48 hrs by MTT assay; assay type: functional, cell-based; details: B16-F10, 48 h
# MCF7 [2] = assay: Induction of apoptotic nuclear morphological changes in human MCF7 cells incubated for 48 hrs by DAPI nuclear staining based fluorescence microscopy; assay type: functional, cell-based
# MCF7 [3] = assay: Induction of apoptotic nuclear morphological changes in human MCF7 cells assessed as induction of cell shrinkage and round shape cells at 4 to 8 uM incubated for 48 hrs by DAPI nuclear staining based fluorescence microscopy; assay type: functional
# MCF7 [4] = assay: Induction of apoptotic nuclear morphological changes in human MCF7 cells assessed as induction of horse shoe shaped nucleus at 12 uM incubated for 48 hrs by DAPI nuclear staining based fluorescence microscopy; assay type: functional, cell-based
# MCF7 [5] = assay: Induction of apoptotic nuclear morphological changes in human MCF7 cells assessed as induction of DNA fragmentation at 12 uM incubated for 48 hrs by DAPI nuclear staining based fluorescence microscopy; assay type: functional, cell-based
# MCF7 [6] = assay: Induction of apoptotic morphological changes in human MCF7 cells assessed as induction of membrane blebbing at 4 uM incubated for 48 hrs by AO/EB staining staining based fluorescence microscopy; assay type: functional, cell-based
# MCF7 [7] = assay: Induction of apoptotic morphological changes in human MCF7 cells assessed as induction of membrane blebbing at 8 uM incubated for 48 hrs by AO/EB staining staining based fluorescence microscopy; assay type: functional, cell-based
# MCF7 [8] = assay: Induction of apoptotic morphological changes in human MCF7 cells assessed as induction of DNA fragmentation at 8 uM incubated for 48 hrs by AO/EB staining staining based fluorescence microscopy; assay type: functional, cell-based
# MCF7 [9] = assay: Induction of apoptotic morphological changes in human MCF7 cells assessed as induction of chromatin condensation at 8 uM incubated for 48 hrs by AO/EB staining staining based fluorescence microscopy; assay type: functional, cell-based
# MCF7 [10] = assay: Induction of late apoptosis in human MCF7 cells at 12 uM incubated for 48 hrs by AO/EB staining staining based fluorescence microscopy; assay type: functional, cell-based
# MCF7 [11] = assay: Induction of cell cycle arrest in human MCF7 cells assessed as accumulation at subG1 phase at 4 uM incubated for 48 hrs by propidium iodide staining based flow cytometry (reference value: 0.88%); assay type: functional
# MCF7 [12] = assay: Induction of cell cycle arrest in human MCF7 cells assessed as accumulation at G0/G1 phase at 4 uM incubated for 48 hrs by propidium iodide staining based flow cytometry (reference value: 53.01%); assay type: functional
# MCF7 [13] = assay: Induction of cell cycle arrest in human MCF7 cells assessed as accumulation at S phase at 4 uM incubated for 48 hrs by propidium iodide staining based flow cytometry (reference value: 12.28%); assay type: functional
# MCF7 [14] = assay: Induction of cell cycle arrest in human MCF7 cells assessed as accumulation at G2/M phase at 4 uM incubated for 48 hrs by propidium iodide staining based flow cytometry (reference value: 32.51%); assay type: functional
# MCF7 [15] = assay: Induction of cell cycle arrest in human MCF7 cells assessed as accumulation at subG1 phase at 8 uM incubated for 48 hrs by propidium iodide staining based flow cytometry (reference value: 0.88%); assay type: functional
# MCF7 [16] = assay: Induction of cell cycle arrest in human MCF7 cells assessed as accumulation at G0/G1 phase at 8 uM incubated for 48 hrs by propidium iodide staining based flow cytometry (reference value: 53.01%); assay type: functional
# MCF7 [17] = assay: Induction of cell cycle arrest in human MCF7 cells assessed as accumulation at S phase at 8 uM incubated for 48 hrs by propidium iodide staining based flow cytometry (reference value: 12.28%); assay type: functional
# MCF7 [18] = assay: Induction of cell cycle arrest in human MCF7 cells assessed as accumulation at G2/M phase at 8 uM incubated for 48 hrs by propidium iodide staining based flow cytometry (reference value: 32.51%); assay type: functional
# MCF7 [19] = assay: Inhibition of colony formation in human MCF7 cells assessed as reduction in colony count incubated for 24 hrs by crystal violet staining based clonogenic cell reproduction assay; assay type: functional
# MCF7 [20] = assay: Induction of apoptosis in human MCF7 cells assessed as viable cells level at 4 uM incubated for 48 hrs by Annexin V and propidium iodide staining based flow cytometry (reference value: 80.6%); assay type: functional
# MCF7 [21] = assay: Induction of apoptosis in human MCF7 cells assessed as early apoptosis cells level at 4 uM incubated for 48 hrs by Annexin V and propidium iodide staining based flow cytometry (reference value: 11.54%); assay type: functional
# MCF7 [22] = assay: Induction of apoptosis in human MCF7 cells assessed as late apoptosis cells level at 4 uM incubated for 48 hrs by Annexin V and propidium iodide staining based flow cytometry (reference value: 7.4%); assay type: functional
# MCF7 [23] = assay: Induction of apoptosis in human MCF7 cells assessed as necrotic cells level at 4 uM incubated for 48 hrs by Annexin V and propidium iodide staining based flow cytometry (reference value: 0.46%); assay type: functional
# MCF7 [24] = assay: Induction of apoptosis in human MCF7 cells assessed as viable cells level at 8 uM incubated for 48 hrs by Annexin V and propidium iodide staining based flow cytometry (reference value: 80.6%); assay type: functional
# MCF7 [25] = assay: Induction of apoptosis in human MCF7 cells assessed as early apoptosis cells level at 8 uM incubated for 48 hrs by Annexin V and propidium iodide staining based flow cytometry (reference value: 11.54%); assay type: functional
# MCF7 [26] = assay: Induction of apoptosis in human MCF7 cells assessed as late apoptosis cells level at 8 uM incubated for 48 hrs by Annexin V and propidium iodide staining based flow cytometry (reference value: 7.4%); assay type: functional
# MCF7 [27] = assay: Induction of apoptosis in human MCF7 cells assessed as necrotic cells level at 8 uM incubated for 48 hrs by Annexin V and propidium iodide staining based flow cytometry (reference value: 0.46%); assay type: functional
# MCF7 [28] = assay: Induction of apoptosis in human MCF7 cells assessed as viable cells level at 12 uM incubated for 48 hrs by Annexin V and propidium iodide staining based flow cytometry (reference value: 80.6%); assay type: functional
# MCF7 [29] = assay: Induction of apoptosis in human MCF7 cells assessed as early apoptosis cells level at 12 uM incubated for 48 hrs by Annexin V and propidium iodide staining based flow cytometry (reference value: 11.54%); assay type: functional
# MCF7 [30] = assay: Induction of apoptosis in human MCF7 cells assessed as late apoptosis cells level at 12 uM incubated for 48 hrs by Annexin V and propidium iodide staining based flow cytometry (reference value: 7.4%); assay type: functional
# MCF7 [31] = assay: Induction of apoptosis in human MCF7 cells assessed as necrotic cells level at 12 uM incubated for 48 hrs by Annexin V and propidium iodide staining based flow cytometry (reference value: 0.46%); assay type: functional
# L132 = assay: Cytotoxicity in human L-132 cells assessed as reduction in cell viability incubated for 48 hrs by MTT assay; assay type: cell-based; details: L132, 48 h
# [32] = Selectivity index, ratio of IC50 for cytotoxicity in human L-132 cells to IC50 for cytotoxicity in human MCF7 cells; assay type: toxicity, cell-based; details: L-132 cells and MCF7 cells, read-out: Ratio IC50
# MCF7 [33] = assay: Induction of apoptosis in human MCF7 cells incubated for 48 hrs by Annexin V and propidium iodide staining based flow cytometry (reference value: 7.4%); assay type: functional, cell-based
compound,measurement,setting,value
COc1ccc(OC)c(CN(C(=S)Nc2ccc(C)cc2)n2cnnc2)c1,IC50,MCF7 [1],> 50 µM
same,IC50,A549,17.4 µM
same,IC50,MDA-MB-231,> 50 µM
same,IC50,DU-145,20.9 µM
same,IC50,B16-F10,20.7 µM
COc1ccc(CN(C(=O)Nc2ccc(Cl)cc2)n2cnnc2)cc1OC,IC50,MCF7 [1],> 50 µM
same,IC50,A549,44.2 µM
same,IC50,MDA-MB-231,> 50 µM
same,IC50,DU-145,20.4 µM
same,IC50,B16-F10,42.2 µM
COc1ccc(CN(C(=S)Nc2ccc(C)cc2)n2cnnc2)cc1OC,IC50,MCF7 [1],> 50 µM
same,IC50,A549,22.2 µM
same,IC50,MDA-MB-231,> 50 µM
same,IC50,DU-145,26.3 µM
same,IC50,B16-F10,29.9 µM
COc1ccc(CN(C(=S)Nc2ccc(F)c(Cl)c2)n2cnnc2)cc1OC,IC50,MCF7 [1],30.1 µM
same,IC50,A549,21 µM
same,IC50,MDA-MB-231,27.9 µM
same,IC50,DU-145,23.3 µM
same,IC50,B16-F10,20.7 µM
O=C(NC1CCCCC1)N(Cc1ccccn1)n1cnnc1,IC50,MCF7 [1],46.9 µM
same,IC50,A549,> 50 µM
same,IC50,MDA-MB-231,44.1 µM
same,IC50,DU-145,> 50 µM
same,IC50,B16-F10,35.8 µM
Cc1ccsc1CN(C(=O)Nc1cccc(Cl)c1)n1cnnc1,IC50,MCF7 [1],31.2 µM
same,IC50,A549,21.4 µM
same,IC50,MDA-MB-231,40.3 µM
same,IC50,DU-145,20.4 µM
same,IC50,B16-F10,> 50 µM
O=C(Nc1ccccc1)N(Cc1ccccn1)n1cnnc1,IC50,MCF7 [1],> 50 µM
same,IC50,A549,24.9 µM
same,IC50,MDA-MB-231,> 50 µM
same,IC50,DU-145,20.2 µM
same,IC50,B16-F10,23.7 µM
COc1cc(CN(C(=S)Nc2cc(C(F)(F)F)cc(C(F)(F)F)c2)n2cnnc2)cc(OC)c1OC,IC50,MCF7 [1],23.8 µM
same,IC50,A549,21 µM
same,IC50,MDA-MB-231,24.9 µM
same,IC50,DU-145,23.1 µM
same,IC50,B16-F10,5.62 µM
COc1ccc(CN(C(=O)Nc2ccc(Cl)c(C(F)(F)F)c2)n2cnnc2)cc1OC,IC50,MCF7 [1],> 50 µM
same,IC50,A549,29.3 µM
same,IC50,MDA-MB-231,> 50 µM
same,IC50,DU-145,> 50 µM
same,IC50,B16-F10,> 50 µM
CCc1ccc(NC(=S)N(Cc2ccc(OC)c(OC)c2)n2cnnc2)cc1,IC50,MCF7 [1],> 50 µM
same,IC50,A549,28.4 µM
same,IC50,MDA-MB-231,> 50 µM
same,IC50,DU-145,> 50 µM
same,IC50,B16-F10,22.9 µM
Cc1ccsc1CN(C(=O)Nc1ccccc1)n1cnnc1,IC50,MCF7 [1],> 50 µM
same,IC50,A549,22.1 µM
same,IC50,MDA-MB-231,> 50 µM
same,IC50,DU-145,> 50 µM
same,IC50,B16-F10,31.1 µM
Cc1ccc(NC(=O)N(Cc2ccccn2)n2cnnc2)cc1,IC50,MCF7 [1],38.9 µM
same,IC50,A549,21.9 µM
same,IC50,MDA-MB-231,39.5 µM
same,IC50,DU-145,21.5 µM
same,IC50,B16-F10,35.2 µM
N#Cc1ccc(CN(C(=S)Nc2cc(C(F)(F)F)cc(C(F)(F)F)c2)n2cnnc2)cc1,IC50,MCF7 [1],7.22 µM
same,IC50,A549,9.39 µM
same,IC50,MDA-MB-231,9.28 µM
same,IC50,DU-145,11.8 µM
same,IC50,B16-F10,4.51 µM
same,Activity,MCF7 [2],Dose-dependent effect
same,Activity,MCF7 [3],Active
same,Activity,MCF7 [4],Active
same,Activity,MCF7 [5],Active
same,Activity,MCF7 [6],Active
same,Activity,MCF7 [7],Active
same,Activity,MCF7 [8],Active
same,Activity,MCF7 [9],Active
same,Activity,MCF7 [10],Active
same,Activity,MCF7 [11],1.18%
same,Activity,MCF7 [12],61.18%
same,Activity,MCF7 [13],11.33%
same,Activity,MCF7 [14],25.01%
same,Activity,MCF7 [15],3.57%
same,Activity,MCF7 [16],69.97%
same,Activity,MCF7 [17],10.13%
same,Activity,MCF7 [18],14.34%
same,inhibition,MCF7 [19],Dose-dependent effect
same,Activity,MCF7 [20],62.98%
same,Activity,MCF7 [21],9.63%
same,Activity,MCF7 [22],24.61%
same,Activity,MCF7 [23],2.78%
same,Activity,MCF7 [24],62.98%
same,Activity,MCF7 [25],9.63%
same,Activity,MCF7 [26],24.61%
same,Activity,MCF7 [27],2.78%
same,Activity,MCF7 [28],44.86%
same,Activity,MCF7 [29],7.53%
same,Activity,MCF7 [30],38.35%
same,Activity,MCF7 [31],9.26%
same,IC50,L132,15.2 µM
same,selectivity ratio,[32],2
same,Activity,MCF7 [33],Dose-dependent effect
